Entries after “also recorded” stand apart in the source; their conditions may differ.
Tests used:
[1] = biological target: T1, Mouse TRPV3 (Mus musculus, UniProt Q8K424, A9V); test: Whole-cell voltage clamp of TRPV3-expressing CHO cells (heat-evoked currents); assay type: cell-based
T1 construct: expressed in transfected cells
T1 sequence (Q8K424 1-791 A9V): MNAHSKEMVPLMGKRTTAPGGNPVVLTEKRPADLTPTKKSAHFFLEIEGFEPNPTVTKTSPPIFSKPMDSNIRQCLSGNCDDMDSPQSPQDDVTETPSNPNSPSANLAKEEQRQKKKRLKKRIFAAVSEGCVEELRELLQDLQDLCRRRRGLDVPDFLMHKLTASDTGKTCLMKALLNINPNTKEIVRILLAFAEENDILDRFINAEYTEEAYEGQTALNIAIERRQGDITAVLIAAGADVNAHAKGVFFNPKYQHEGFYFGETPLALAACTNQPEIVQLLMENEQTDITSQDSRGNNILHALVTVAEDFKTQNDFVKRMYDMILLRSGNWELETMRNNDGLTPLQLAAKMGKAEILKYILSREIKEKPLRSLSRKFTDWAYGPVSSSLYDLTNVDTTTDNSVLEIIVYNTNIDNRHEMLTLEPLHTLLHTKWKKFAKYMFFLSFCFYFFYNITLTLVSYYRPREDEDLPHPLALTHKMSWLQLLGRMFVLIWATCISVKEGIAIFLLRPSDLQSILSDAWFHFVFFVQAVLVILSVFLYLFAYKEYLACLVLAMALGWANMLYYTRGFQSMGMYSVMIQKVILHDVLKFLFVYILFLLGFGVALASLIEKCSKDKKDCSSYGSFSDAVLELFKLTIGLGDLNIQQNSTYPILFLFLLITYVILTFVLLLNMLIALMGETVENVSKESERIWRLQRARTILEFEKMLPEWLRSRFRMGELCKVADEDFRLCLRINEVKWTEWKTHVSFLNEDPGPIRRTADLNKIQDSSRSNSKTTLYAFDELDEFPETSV
Protocol: Given the high degree of homology of TRPV3 to TRPV family members, TRPV3 is tested to determine whether it responds to stimuli known to activate other closely-related family members. Accordingly, the effects of heat upon TRPV3 activity in mediating conductance are examined using whole-cell patch-clamp analysis of transfected CHO cell lines expressing TRPV3.
Mouse TRPV3 and rat TRPV1 cDNA are subcloned into pcDNA5 (Invitrogen) and transfected into CHO-K1/FRT cells using Fugene 6 (Roche). The transfected cells are selected by growth in MEM medium containing 200 μg/mL hygromycin (Gibco BRL). Populations are frozen at early passages and these stocks are used for further studies. Stable clones that express the mRNAs are identified by Northern blot analysis as well as Southern blotting to confirm integration site. Long-term cultures are subsequently maintained at 33° C.
TRPV3 expressing CHO cells are assayed electrophysiologically using whole cell voltage clamped techniques. Currents are recorded via pCLAMP8 suite of software via an Axopatch 200A and filtered at 5 kHz. Series-resistance compensation for all experiments is 80% using 2-5 MΩ resistance, fire-polished pipettes. Unless stated, the holding potential for most experiments is −60 mV, apart from the current-voltage relationship studies (2 second ramp from −100 to +80 mV). Cells are normally bathed in a medium containing (mM): NaCl, 140; KCl, 5; Glucose; 10, HEPES, 10; CaCl2, 2; MgCl2 1; titrated to pH 7.4 with NaOH, apart from the monovalent permeability studies, when NaCl is replaced by equimolar KCl or CsCl with the omission of KCl, 5 mM. For the divalent permeability studies, the solutions either contain 1 mM Ca^2+ or Mg^2+ and (mM) NaCl, 100; Glucose, 10; Hepes, 10; sucrose, 80 or 30 mM test ion, in the above solution minus sucrose. The experiments in calcium free media have no added CaCl2 with the addition of 100 μM EGTA. Pipette solution is always (mM) CsCl, 140; CaCl2, 1; EGTA, 10; HEPES, 10; MgATP, 2; titrated to pH7.4 with CsOH. For the permeability, ratios for the monovalent cations relative to Na (PX/PNa) are calculated as follows: PX/PNa=Eshift={RT/F}log(PX/PNa[X]O/[Na]O)

[2] = biological target: T2, mouse TRPM8 (Mus musculus, UniProt Q8R4D5); test: Fura-2 calcium imaging of TRPM8-expressing CHO cells; assay type: cell-based
T2 construct: expressed in transfected cells
T2 sequence (Q8R4D5 whole entry): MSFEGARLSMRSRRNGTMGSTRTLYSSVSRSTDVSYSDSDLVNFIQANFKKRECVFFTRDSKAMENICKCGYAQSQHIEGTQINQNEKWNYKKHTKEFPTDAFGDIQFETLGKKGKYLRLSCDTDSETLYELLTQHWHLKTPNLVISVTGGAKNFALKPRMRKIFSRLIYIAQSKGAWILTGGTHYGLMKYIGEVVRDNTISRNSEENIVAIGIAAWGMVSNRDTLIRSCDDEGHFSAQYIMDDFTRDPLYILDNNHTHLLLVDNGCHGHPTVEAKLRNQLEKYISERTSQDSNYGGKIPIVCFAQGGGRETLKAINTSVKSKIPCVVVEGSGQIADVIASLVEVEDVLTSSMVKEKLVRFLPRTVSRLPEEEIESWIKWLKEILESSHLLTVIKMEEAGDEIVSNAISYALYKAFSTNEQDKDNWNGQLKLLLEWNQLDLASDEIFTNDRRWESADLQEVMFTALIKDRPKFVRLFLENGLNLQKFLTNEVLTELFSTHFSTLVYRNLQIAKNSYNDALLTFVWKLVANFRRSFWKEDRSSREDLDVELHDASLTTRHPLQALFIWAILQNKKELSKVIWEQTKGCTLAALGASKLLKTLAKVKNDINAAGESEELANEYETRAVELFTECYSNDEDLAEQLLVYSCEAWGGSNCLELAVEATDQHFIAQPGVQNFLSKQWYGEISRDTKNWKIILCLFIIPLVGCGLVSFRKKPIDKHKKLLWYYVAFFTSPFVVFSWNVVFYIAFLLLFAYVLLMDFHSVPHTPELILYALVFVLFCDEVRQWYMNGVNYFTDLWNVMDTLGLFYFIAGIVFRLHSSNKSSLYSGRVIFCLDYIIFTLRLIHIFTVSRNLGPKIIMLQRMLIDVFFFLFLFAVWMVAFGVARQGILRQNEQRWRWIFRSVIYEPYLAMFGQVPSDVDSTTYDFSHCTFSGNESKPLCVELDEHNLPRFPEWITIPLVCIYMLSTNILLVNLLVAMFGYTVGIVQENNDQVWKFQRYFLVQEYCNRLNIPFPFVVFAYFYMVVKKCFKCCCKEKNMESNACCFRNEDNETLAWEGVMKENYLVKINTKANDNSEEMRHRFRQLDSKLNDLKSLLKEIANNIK
Excerpt: Given the similarity of TRPM8 protein to TRPV family members and its unique expression pattern, the effects of heat, capsaicin, cold and menthol in mediating calcium influx are examined using transfected CHO-K1/FRT cells expressing TRPM8 protein and a fluorescent calcium imaging method as described in detail below.
To generate mouse TRPM8-expressing CHO cell lines, mouse TRPM8 cDNA are subcloned in pcDNA5 (Invitrogen), transfected into CHO-K1/FRT cells using Fugene 6 (Roche). The transfected cells are selected by growth in MEM medium containing […] hygromycin (Gibco BRL). Populations are frozen at early passage numbers and these stocks are used for further studies. Stable clones that express the mRNAs are identified by Northern blot analysis as well as Southern blotting to confirm integration site (not shown).
Calcium imaging experiments are performed essentially as previously described (see Savidge et al., Neuroscience, 102:177-184 (2001)). Briefly, cells are plated on glass coverslips and loaded with Fura-2 acetoxymethyl ester ([…]) and incubated for 30-60 minutes at room temperature in […] of pluronic acid (Molecular Probes, Eugene, Oreg.) in a HEPES-buffered saline (2 mM Ca 2+). Coverslips are placed in a laminar flow perfusion chamber (Warner Instrument Corp.) and constantly perfused with HEPES-buffered saline (2 mM Ca^2+) via a local perfusion pipette through which buffer and chilled solutions are also applied. Chilled stimulations consist of a linear decrease (˜1-1.5° C. sec^−1) in perfusate temperature from 33° C. to 10° C. Perfusate temperature is controlled by a regulated Peltier device and is monitored in the cell chamber by a miniature thermocouple. Alternatively, cells are plated on 24-well tissue culture plates, loaded with Fura-2 and application of solutions is performed with a 3 cc syringe over a period of 10 seconds. Images of Fura-2 loaded cells with the excitation wavelength alternating between […] are captured with a cooled CCD camera. Following subtraction of background fluorescence, the ratio of fluorescence intensity at the two wavelengths is calculated. Ratio levels in groups of 20-40 individual cells are analyzed using MetaFluor (Universal Imaging Corporation). All graphs are averaged responses from groups of 20-30 individual cells from representative single experiments. […] Hanks balanced salt solution (HBSS), phosphate buffered saline (PBS) and all cell culture reagents are obtained from Gibco BRL. Ruthenium red, capsaicin and menthol are obtained from Sigma.

[3] = biological target: T2, mouse TRPM8; test: Whole-cell voltage clamp of TRPM8-expressing CHO cells; assay type: cell-based
Protocol: To investigate the membrane responses to cold and menthol, voltage clamp experiments are carried out on TRPM8 expressing cells which are prepared as described above.
Cells are plated onto poly-D-lysine coated cover-slips for recording purposes and recordings undertaken 18-24 hours later. Experiments are carried out at room temperature using whole-cell voltage clamp technique, with an Axopatch 2B amplifier, filtered at 5 kHz and pClamp suite of software (Axon Instruments). Series resistant compensation is 80% for all experiments, using 2-5 MΩ fire-polished pipettes. Recording solutions are as follows; pipette solution for all experiments is (mM) CsCl, 140; CaCl2, 1; EGTA, 10; HEPES, 10; MgATP, 2; titrated to pH 7.4 with CsOH. For menthol and cold activated currents the bath solution is (mM): NaCl, 140; KCl, 5; Glucose; 10, HEPES, 10; CaCl2, 2; MgCl2, 1; titrated to pH 7.4 with NaOH. Current-voltage relationships are used to evaluate reversal potentials with voltage ramps from −100 to +60 mV (2 second duration). For the permeability studies for the monovalent ions the NaCl in a simplified bath solution (mM): NaCl, 140; Glucose; 10, HEPES, 10; CaCl2, 2; MgCl2, 1, is substituted by either equimolar CsCl or KCl (titrated with CsOH or KOH). For calcium permeability estimates, the bath solutions contains (mM) NaCl, 100; Glucose, 10 mM; Hepes, 10 mM (titrated with NaOH) plus 1 or 30 mM CaCl2. Osmolarity of solutions are adjusted by addition of sucrose. Permeability ratios for the monovalent cations to Na (PX/PNa) are calculated as follows: PX/PNa=Eshift={RT/F}log(PX/PNa[X]O/[Na]O)
where B′=P′Ca/PNa and P′Ca=PCa/(1+e^EF/RT) and [Ca]O(1) and [Ca]O(2) refer to the two different calcium concentrations. Local perfusion of menthol is via a TC^2bip temperature controller. A Marlow temperature controller is used for the cooling ramps.

[4] = system: Non-transfected CHO cells; test: Fura-2 calcium imaging of non-transfected CHO cells (control cells); assay type: cell-based, Chinese Hamster; conditions: tested up to 1 mM
[5] = system: Non-transfected CHO cells; test: Whole-cell voltage clamp of non-transfected CHO cells (control cells); assay type: cell-based, Chinese Hamster; conditions: temperatures >23° C.
Protocol: To investigate the membrane responses to cold and menthol, voltage clamp experiments are carried out on TRPM8 expressing cells which are prepared as described above. Cells are plated onto poly-D-lysine coated cover-slips for recording purposes and recordings undertaken 18-24 hours later. […] Series resistant compensation is 80% for all experiments, using 2-5 MΩ fire-polished pipettes. Recording solutions are as follows; pipette solution for all experiments is (mM) CsCl, 140; […] EGTA, 10; HEPES, 10; […] For menthol and cold activated currents the bath solution is (mM): NaCl, 140; KCl, 5; Glucose; 10, HEPES, 10; […] Current-voltage relationships are used to evaluate reversal potentials with voltage ramps from -100 to +60 mV (2 second duration). For the permeability studies for the monovalent ions the NaCl in a simplified bath solution (mM): NaCl, 140; Glucose; 10, HEPES, 10; […] MgCl2, 1, is substituted by either equimolar CsCl or KCl (titrated with CsOH or KOH). For calcium permeability estimates, the bath solutions contains (mM) NaCl, 100; Glucose, 10 mM; Hepes, 10 mM (titrated with NaOH) plus 1 or 30 mM CaCl2. Osmolarity of solutions are adjusted by addition of sucrose. Permeability ratios for the monovalent cations to Na (PX/PNa) are calculated as follows: […]={[…])

## COc1cc(CNC(=O)CCCC/C=C/C(C)C)ccc1O [Capsaicin, capsaicin]
[1]; 1 μM, whole cell voltage clamp
  current response evoked in TRPV3-expressing cells: does not evoke a response
[2]; 10 μM
  intracellular calcium response evoked in TRPM8 expressing cells: does not evoke a response

## Oc1cc2c(cc1O)CN(C(=S)NCCc1ccc(Cl)cc1)CCC2 [capsazepine]
[1]; 10 μM applied for 2 minutes prior to the test heat challenge, after 4-5 sensitizing heat steps, no-antagonist control 1.57±0.25
  amplitude of test heat-evoked current relative to the preceding response: 2.31±0.36 times the amplitude of the preceding response

## CC1CCC(C(C)C)C(O)C1 (stereo not shown) [menthol]
[2]; 30° C., 10 μM (FIG. 7E)
  calcium response of TRPM8 expressing cells upon lowering the temperature to 30° C.: intracellular calcium levels increases; also recorded: marked increase in intracellular Ca^2+
[2]; 33° C., 10 μM (FIG. 7E)
  calcium response of TRPM8 expressing cells at 33° C.: does not induce a calcium response; also recorded: does not elicit an influx of Ca^2+
[2]; cells incubated at 25° C., 10 and 100 μM
  intracellular calcium (Fura-2 fluorescence) response of TRPM8 cells: increases significantly; also recorded: responds to menthol
[2]; repeated applications (FIG. 7E)
  desensitization of TRPM8-expressing cells on repeated applications: do not appear to desensitize
[3]; 1 mM, Vh=−60 mV, 25° C.
  inward currents evoked in TRPM8-expressing CHO cells (FIG. 10A): Inward currents evoked
[3]; +60 mV, 0.1, 0.5, 1 and 10 mM
  concentration-response relationship of evoked currents at 22° C. versus 35° C.: shifted to the left at the lower temperature
[3]; CsCl pipette, NaCl-based bath solution, n=12
  Erev of the menthol activated current: −9.28±0.75 mV
[3]; temperatures above the threshold for cold activation (>23° C.)
  currents evoked in TRPM8 expressing cells: evokes rapidly activating currents
[4]
  calcium response of non-transfected CHO cells: completely insensitive; also recorded: no increase in [Ca^2+]i
[5]
  currents evoked in non-transfected CHO cells: not in non-transfected CHO cells

## N.N.N.N.N.N.N.N.N.N.N.N.N.N.[Cl-].[Cl-].[Cl-].[Cl-].[Cl-].[Cl-].[O-2].[O-2].[Ru+3].[Ru+3].[Ru+4] [ruthenium red]
[1]; 1 μM applied for 2 minutes prior to the test heat challenge, after 4-5 sensitizing heat steps, no-antagonist control 1.57±0.25
  relative amplitude of the heat response (test heat-evoked current relative to the preceding response): 0.34±0.03
[1]; 1 μM, repeated heat steps
  effect on sensitization and heat response of TRPV3 (FIG. 4D): attenuates the sensitization and inhibits the heat response
[2]; 5 μM
  suppression of the temperature (cold) calcium response of TRPM8 expressing cells: does not suppress the temperature response

— patent publication US7396910B2, “Transient receptor potential channel TRPV3 and its use” (IRM LLC, priority 2001, dated 2008)
